These results are taken from patent EP1140830B1, “ARYLPIPERIDINE AND ARYL-1,2,5,6-TETRAHYDROPYRIDINE AMIDE DERIVATIVES HAVING 5HT1A RECEPTOR ACTIVITY” (Wyeth, priority 1998, dated 2000).

pEC50, pIC50, pKi: −log10 of the molar value. Like-named read-outs stand apart in the source and are kept apart here.

Broadly, the Emax is the size of the effect at its maximum, as opposed to the concentration needed. The term pIC50 denotes the negative decadic logarithm of the IC50, by convention in mol/L. Usually pKi stands for the negative decadic logarithm of the Ki, by convention in mol/L. Higher therefore signals a small Ki. A word on the pEC50: it is −log10 of the EC50, conventionally taken in molar units.

The target of assay [1] is T1, human 5HT1A receptor (Homo sapiens, UniProt P08908).
T1 construct: expressed in transfected cells; host or cells: CHO cells
T1 sequence (P08908 1-422): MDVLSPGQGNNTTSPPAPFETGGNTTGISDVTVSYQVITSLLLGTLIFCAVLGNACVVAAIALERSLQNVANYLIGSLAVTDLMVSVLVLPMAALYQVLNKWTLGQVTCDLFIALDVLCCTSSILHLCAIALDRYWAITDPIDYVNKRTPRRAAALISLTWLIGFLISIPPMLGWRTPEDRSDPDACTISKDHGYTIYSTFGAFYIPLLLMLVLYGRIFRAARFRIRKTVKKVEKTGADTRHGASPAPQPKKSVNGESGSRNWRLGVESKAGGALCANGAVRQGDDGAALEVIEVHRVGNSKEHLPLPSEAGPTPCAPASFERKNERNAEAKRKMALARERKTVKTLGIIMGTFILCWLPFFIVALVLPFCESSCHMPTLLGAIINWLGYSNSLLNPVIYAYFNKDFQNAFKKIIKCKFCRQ
The experiment in a line: 5-HT1A Receptor Intrinsic Activity Assay (forskolin-stimulated cAMP in transfected CHO cells, RIA). It counts as cell-based. The following applies: for Emax: Emax = 0 % means no agonist activity; for pIC50: antagonist mode: reversal of agonist-induced activity, antagonist preincubated 20 minutes before agonist and forskolin. The procedure:
5-HT1A Receptor Intrinsic Activity Assay
The intrinsic activity of compounds of the present invention was established by testing the claimed compounds ability to reverse the stimulation of cyclic adenosinemonophosphate (cAMP) in CHO cells stably transfected with the human 5-HT1A receptor.
Stably transfected CHO cells were grown in DMEM containing 10% heat inactivated FBS and non-essential amino acids. The cells arc plated at a density of ? x10^6 cells per well in a 24 well plate and incubated for 2 days in a CO2 incubator. On the second day, the media is replaced with 0.5 mL treatment buffer (DMEM + 25 mM HEPES, 5 mM theophylline, 10 µM pargyline) and incubated for 10 minutes at 37°C. Wells are treated with forskolin (1 µM final concentration) followed immediately by the test compound (0.1 and 1 µM for initial screen) and incubated for an additional 10 minutes at 37°C. The reaction is terminated by removal of the media and addition of 0.5 mL ice cold assay buffer (supplied in the RIA kit). Plates are stored at -20°C prior to assessment of cAMP formation by RIA. EC50 values are determined for the active test compounds. Compounds shown to have no agonist activities (Emax = 0 %) are further analyzed for their ability to reverse agonist-induced activity. In separate experiments, 6 concentrations of antagonist are preincubated for 20 minutes prior to the addition of agonist and forskolin. Cells are harvested as described above. The CAMP kit is supplied by Amersham and the RIA is performed as per kit instructions, and calculations of IC50 performed by GraphPad Prism.

Assay [2] deals with T1, human 5HT1A receptor. The experiment in a line: 5-HT1A Receptor Binding Assay ([3H] 8-OH-DPAT displacement in transfected CHO cells). The procedure: 5-HT1A Receptor Binding Assay
Stably transfected CHO cells are grown in DMEM containing 10% heat inactivated FBS and non-essential amino acids. Cells are scraped off the plate, transferred to centrifuge tubes, and washed twice by centrifugation (2000 rpm for 10 min., 4"C) in buffer (50 mM Tris pH 7.5). The resulting pellets are aliquoted and placed at -80°C. On the day of assay, the cells are thawed on ice and resuspended in buffer. The binding assay is performed in a 96 well microtiter plate in a total volume of 250 µL. […] Following a 30 minute incubation at room temperature, the reaction is terminated by the addition of ice cold buffer and rapid filtration through a GF/B filter presoaked for 30 minutes in 0.5% PEI.

Where [3] appears, read: agonist mode: reversal of forskolin (1 µM) stimulated cAMP, CHO cells.
Setting [4] is: displacement of [3H] 8-OH-DPAT (1.5 nM), CHO cells stably transfected with human 5HT1A receptor.

Regarding `COc1ccc(F)cc1C1CCN(C[C@@H](Cc2ccccc2)N(C)C(=O)C2(C)CCCCC2)CC1` [Example 1, 1-Methyl-cyclohexanecarboxylic acid {(1R)-1-benzyl-2-[4-(5-fluoro-2-methoxy-phenyl)-piperidine-1-yl]-ethyl}-methyl-amide], the Emax at human 5HT1A receptor [1] (setting [3]) amounted to 0%. Further, the negative-log IC50 (pIC50) at human 5HT1A receptor [1] was 7.95. At human 5HT1A receptor [2] (setting [4]), this compound showed a negative-log Ki (pKi) of 7.97.

Consider `COc1ccc(F)cc1C1=CCN(C[C@@H](Cc2ccccc2)N(C)C(=O)C2(C)CCCCC2)CC1` [Example 2, 1-Methyl-cyclohexanecarboxylic acid {(1R)-1-benzyl-2-[4-(5-fluoro-2-methoxy-phenyl)-1,2,5,6-tetrahydro-4H-pyridin-1-yl]-ethyl}-methyl-amide], for which the Emax at human 5HT1A receptor [1] (setting [3]) was found to be 0%. In addition, the negative-log Ki (pKi) on human 5HT1A receptor [2] was 8.31.

Take `COc1ccccc1C1=CCN(C[C@@H](Cc2ccccc2)NC(=O)C2CCCCC2)CC1` [Example 3, (R)-Cyclohexanecarboxylic acid{1-benzyl-2-[4-(2-methoxy-phenyl)-3,6-dihydro-2H-pyridin-1-yl]-ethyl}-amide]: the Emax on human 5HT1A receptor [1] (setting [3]) came to 84%.

With `COc1ccccc1C1=CCN(C[C@@H](Cc2ccccc2)NC(=O)C2(C)CCCCC2)CC1` [Example 4, (R)-1-Methyl-cyclohexanecarboxylic acid{1-benzyl-2-[4-(2-methoxy-phenyl)-3,6-dihydro-2H-pyridin-1-yl]-ethyl}-amide], on human 5HT1A receptor [1] (setting [3]), the Emax stood at 84%.

For `COc1ccccc1C1CCN(C[C@@H](Cc2ccccc2)NC(=O)C2(C)CCCCC2)CC1` [Example 5, (R)-1-Methyl-cyclohexanecarboxylic acid {1-benzyl-2-[4-(2-methoxy-phenyl)-piperidin-1-yl]-ethyl}-amide], the Emax at human 5HT1A receptor [1] (setting [3]) amounted to 0%. Moreover, the pIC50 at human 5HT1A receptor [1] is 9.54. Further, the pKi at human 5HT1A receptor [2] (setting [4]) is 9.62.

Regarding `COc1ccccc1C1CCN(C[C@@H](Cc2ccccc2)NC(=O)C2CCCCC2)CC1` [Example 6, (R)-Cyclohexanecarboxylic acid {1-benzyl-2-[4-(2-methoxy-phenyl)-piperidin-1-yl]-ethyl}-amide], at human 5HT1A receptor [1] (setting [3]), the negative-log EC50 (pEC50) is 7.77 and the Emax is 92%. The same compound showed a negative logarithm of the Ki (pKi) on human 5HT1A receptor [2] (setting [4]) of 9.64.
